# From US8063065B2, “Azaindazole compounds as CCR1 receptor antagonists” (Boehringer Ingelheim International GmbH, priority 2008, dated 2011)
# Biological target: T1, CCR1 (Homo sapiens, UniProt P32246)
# T1 sequence (P32246 1-355): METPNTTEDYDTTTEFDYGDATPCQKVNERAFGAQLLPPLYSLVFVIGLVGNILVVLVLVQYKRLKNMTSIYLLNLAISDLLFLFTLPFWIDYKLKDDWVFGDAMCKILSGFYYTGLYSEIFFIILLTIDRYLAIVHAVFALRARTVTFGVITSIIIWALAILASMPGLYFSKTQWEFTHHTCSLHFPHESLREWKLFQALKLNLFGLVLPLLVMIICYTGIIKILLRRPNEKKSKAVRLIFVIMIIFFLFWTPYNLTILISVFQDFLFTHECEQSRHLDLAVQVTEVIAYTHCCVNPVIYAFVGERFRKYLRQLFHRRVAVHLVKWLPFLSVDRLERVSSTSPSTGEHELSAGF
# Experiment: Method A: calcium flux in CCR1 transfected cells (Fluo-4 NW, FLIPR TETRA), block of the CCR1/MIP-1α interaction
# Type: cell-based
# Conditions: Method A: Fluo-4 NW, MIP-1 alpha at EC80
# Method: Compounds are assessed for the ability to block the interaction of CCR1 and MIP-1α in a functional cellular assay measuring calcium flux in CCR1 transfected cells.
# Method A: Non-adherent cells purchased from Chemicon Corporation (HTS005C), stably expressing recombinant CCR1 and G-alpha-16 are grown in RPMI 1640 medium (Mediatech 10-080-CM) supplemented with 10% heat-inactivated FBS, 0.4 mg/mL Geneticin and penicillin/streptomycin. On the day of the assay, the cells are transferred to a beaker and dye-loaded in bulk using a Fluo-4 NW Calcium Assay Kit with probenecid (Invitrogen F36205) at 0.8E6 cells/mL for 1 hour at room temperature. After 1 hour, they are seeded in a 384-well tissue culture-treated plate at a density of 20,000 cells/well. Appropriately diluted test compound is added to the well to achieve a top concentration of 3,000 nM (diluted 4-fold with 10 doses total). The final concentration of DMSO is 1%. The buffer is HBSS (Invitrogen 14025) with 20 mM HEPES at pH 7.4. The cells are allowed to incubate 1 hour in the dark at room temperature. The plates are transferred to the FLIPR TETRA where MIP-1 alpha in 1% BSA is added at the EC80 final concentration. Wells+/−MIP-1 alpha containing diluted DMSO instead of compound serve as the controls. Intracellular calcium flux is recorded on the FLIPR TETRA, using excitation at 470/495 nm and emission at 515/575 nm. Data are analyzed using Activity Base software.
row,SMILES,IC50
1,"O=C(NCc1cncc(Br)c1)c1cncc2c1cnn2-c1ccc(F)cc1 [1-(4-Fluorophenyl)-1H-pyrazolo[3,4-c]pyridine-4-carboxylic acid (5-bromopyridin-3-ylmethyl)-amide]",13 nM
2,"CN(C)S(=O)(=O)c1ccc(CNC(=O)c2cncc3c2cnn3-c2ccc(F)cc2)cn1 [1-(4-Fluorophenyl)-1H-pyrazolo[3,4-c]pyridine-4-carboxylic acid (6-dimethylsulfamoyl-pyridin-3-ylmethyl)-amide]",1 nM
3,"CCS(=O)(=O)c1ccc(CNC(=O)c2cncc3c2cnn3-c2ccc(F)cc2)cn1 [1-(4-Fluorophenyl)-1H-pyrazolo[3,4-c]pyridine-4-carboxylic acid (6-ethanesulfonyl-pyridin-3-ylmethyl)-amide]",31 nM
4,"CS(=O)(=O)Nc1ccc(CNC(=O)c2cncc3c2cnn3-c2ccc(F)cc2)cn1 [1-(4-Fluorophenyl)-1H-pyrazolo[3,4-c]pyridine-4-carboxylic acid (6-methanesulfonylamino-pyridin-3-ylmethyl)-amide]",25 nM
5,"CCCC(NC(=O)c1cncc2c1cnn2-c1ccc(F)cc1)c1ccnc(Br)c1 (stereo not shown) [1-(4-Fluorophenyl)-1H-pyrazolo[3,4-c]pyridine-4-carboxylic acid [1-(2-bromopyridin-4-yl)-butyl]-amide]",0.4 nM
6,"CCCC(NC(=O)c1cncc2c1cnn2-c1ccc(F)cc1)c1cncc(Br)c1 (stereo not shown) [1-(4-Fluorophenyl)-1H-pyrazolo[3,4-c]pyridine-4-carboxylic acid [1-(5-bromopyridin-3-yl)-butyl]-amide]",0.4 nM
7,"CCCC(NC(=O)c1cncc2c1cnn2-c1ccc(F)cc1)c1cncc(S(N)(=O)=O)c1 (stereo not shown) [1-(4-Fluorophenyl)-1H-pyrazolo[3,4-c]pyridine-4-carboxylic acid [1-(5-sulfamoyl-pyridin-3-yl)-butyl]-amide]",0.4 nM
8,"CC(NC(=O)c1cncc2c1cnn2-c1ccc(F)cc1)c1ccc(Br)nc1 (stereo not shown) [1-(4-Fluorophenyl)-1H-pyrazolo[3,4-c]pyridine-4-carboxylic acid [1-(6-bromopyridin-3-yl)-ethyl]-amide]",30 nM
9,"CC(NC(=O)c1cncc2c1cnn2-c1ccc(F)cc1)c1ccc(S(C)(=O)=O)nc1 (stereo not shown) [1-(4-Fluorophenyl)-1H-pyrazolo[3,4-c]pyridine-4-carboxylic acid [1-(6-methanesulfonyl-pyridin-3-yl)-ethyl]-amide]",9 nM
10,"CCC(NC(=O)c1cncc2c1cnn2-c1ccc(F)cc1)c1ccc(S(C)(=O)=O)nc1 (stereo not shown) [1-(4-Fluorophenyl)-1H-pyrazolo[3,4-c]pyridine-4-carboxylic acid [1-(6-methanesulfonyl-pyridin-3-yl)-propyl]-amide]",3 nM
11,"O=C(NCc1ccc(N2CCCCS2(=O)=O)nc1)c1cncc2c1cnn2-c1ccc(F)cc1 [1-(4-Fluorophenyl)-1H-pyrazolo[3,4-c]pyridine-4-carboxylic acid [6-(1,1-dioxo-1λ6-perhydro-1,2-thiazin-2-yl)-pyridin-3-ylmethyl]-amide]",9 nM
12,"COCCNS(=O)(=O)c1ccc(CNC(=O)c2cncc3c2cnn3-c2ccc(F)cc2)cn1 [1-(4-Fluorophenyl)-1H-pyrazolo[3,4-c]pyridine-4-carboxylic acid [6-(2-methoxy-ethylsulfamoyl)-pyridin-3-ylmethyl]-amide]",9 nM
13,"O=C(NCc1ccc(S(=O)(=O)NC2CCOCC2)nc1)c1cncc2c1cnn2-c1ccc(F)cc1 [1-(4-Fluorophenyl)-1H-pyrazolo[3,4-c]pyridine-4-carboxylic acid [6-(tetrahydropyran-4-ylsulfamoyl)-pyridin-3-ylmethyl]-amide]",17 nM
14,"C=CC[C@@H](NC(=O)c1cncc2c1cnn2-c1ccc(F)cc1)c1ccnc(Br)c1 [1-(4-Fluorophenyl)-1H-pyrazolo[3,4-c]pyridine-4-carboxylic acid [(R)-1-(2-bromopyridin-4-yl)-but-3-enyl]-amide]",17 nM
15,"C=CC[C@H](NC(=O)c1cncc2c1cnn2-c1ccc(F)cc1)c1ccnc(Br)c1 [1-(4-Fluorophenyl)-1H-pyrazolo[3,4-c]pyridine-4-carboxylic acid [(S)-1-(2-bromopyridin-4-yl)-but-3-enyl]-amide]",0.3 nM

# More lines, now with the values ahead:
row,IC50,SMILES
1,2 nM,"O=C(NCc1ccnc(Br)c1)c1cncc2c1cnn2-c1ccc(F)cc1 [1-(4-Fluorophenyl)-1H-pyrazolo[3,4-c]pyridine-4-carboxylic acid (2-bromopyridin-4-ylmethyl)-amide]"
2,2 nM,"COc1cc(CNC(=O)c2cncc3c2cnn3-c2ccc(F)cc2)ccn1 [1-(4-Fluorophenyl)-1H-pyrazolo[3,4-c]pyridine-4-carboxylic acid (2-methoxy-pyridin-4-ylmethyl)-amide]"
3,13 nM,"NS(=O)(=O)c1cc(CNC(=O)c2cncc3c2cnn3-c2ccc(F)cc2)ccn1 [1-(4-Fluorophenyl)-1H-pyrazolo[3,4-c]pyridine-4-carboxylic acid (2-sulfamoyl-pyridin-4-ylmethyl)-amide]"
4,39 nM,"CS(=O)(=O)c1cccc(CNC(=O)c2cncc3c2cnn3-c2ccc(F)cc2)n1 [1-(4-Fluorophenyl)-1H-pyrazolo[3,4-c]pyridine-4-carboxylic acid (6-methanesulfonyl-pyridin-2-ylmethyl)-amide]"
5,5 nM,"CCC[C@H](NC(=O)c1cncc2c1cnn2-c1ccc(F)cc1)c1cccnc1 [1-(4-Fluorophenyl)-1H-pyrazolo[3,4-c]pyridine-4-carboxylic acid ((S)-1-pyridin-3-yl-butyl)-amide]"
6,1 nM,"CC(NC(=O)c1cncc2c1cnn2-c1ccc(F)cc1)c1ccnc(Br)c1 (stereo not shown) [1-(4-Fluorophenyl)-1H-pyrazolo[3,4-c]pyridine-4-carboxylic acid [1-(2-bromopyridin-4-yl)-ethyl]-amide]"
7,0.4 nM,"CCC(NC(=O)c1cncc2c1cnn2-c1ccc(F)cc1)c1ccnc(Br)c1 (stereo not shown) [1-(4-Fluorophenyl)-1H-pyrazolo[3,4-c]pyridine-4-carboxylic acid [1-(2-bromopyridin-4-yl)-propyl]-amide]"
8,0.8 nM,"CCCC(NC(=O)c1cncc2c1cnn2-c1ccc(F)cc1)c1ccnc(S(=O)(=O)CC)c1 (stereo not shown) [1-(4-Fluorophenyl)-1H-pyrazolo[3,4-c]pyridine-4-carboxylic acid [1-(2-ethanesulfonyl-pyridin-4-yl)-butyl]-amide]"
9,0.6 nM,"CCCC(NC(=O)c1cncc2c1cnn2-c1ccc(F)cc1)c1cncc(S(C)(=O)=O)c1 (stereo not shown) [1-(4-Fluorophenyl)-1H-pyrazolo[3,4-c]pyridine-4-carboxylic acid [1-(5-methanesulfonyl-pyridin-3-yl)-butyl]-amide]"
10,0.5 nM,"CCCC(NC(=O)c1cncc2c1cnn2-c1ccc(F)cc1)c1cncc(S(=O)(=O)NC)c1 (stereo not shown) [1-(4-Fluorophenyl)-1H-pyrazolo[3,4-c]pyridine-4-carboxylic acid [1-(5-methylsulfamoyl-pyridin-3-yl)-butyl]-amide]"
11,0.8 nM,"CCCC(NC(=O)c1cncc2c1cnn2-c1ccc(F)cc1)c1ccc(S(C)(=O)=O)nc1 (stereo not shown) [1-(4-Fluorophenyl)-1H-pyrazolo[3,4-c]pyridine-4-carboxylic acid [1-(6-methanesulfonyl-pyridin-3-yl)-butyl]-amide]"
12,24 nM,"CN(C)S(=O)(=O)Nc1ccc(CNC(=O)c2cncc3c2cnn3-c2ccc(F)cc2)cn1 [1-(4-Fluorophenyl)-1H-pyrazolo[3,4-c]pyridine-4-carboxylic acid [6-(dimethylamino-sulfonylamino)-pyridin-3-ylmethyl]-amide]"
13,1 nM,"CN(C)S(=O)(=O)N(C)c1ccc(CNC(=O)c2cncc3c2cnn3-c2ccc(F)cc2)cn1 [1-(4-Fluorophenyl)-1H-pyrazolo[3,4-c]pyridine-4-carboxylic acid [6-(dimethylamino-sulfonylmethylamino)-pyridin-3-ylmethyl]-amide]"
14,5 nM,"CN(c1ccc(CNC(=O)c2cncc3c2cnn3-c2ccc(F)cc2)cn1)S(C)(=O)=O [1-(4-Fluorophenyl)-1H-pyrazolo[3,4-c]pyridine-4-carboxylic acid [6-(methanesulfonyl-methyl-amino)-pyridin-3-ylmethyl]-amide]"
15,18 nM,"O=C(NCc1ccc(S(=O)(=O)N2CCOCC2)nc1)c1cncc2c1cnn2-c1ccc(F)cc1 [1-(4-Fluorophenyl)-1H-pyrazolo[3,4-c]pyridine-4-carboxylic acid [6-(morpholine-4-sulfonyl)-pyridin-3-ylmethyl]-amide]"
16,1 nM,"C=CC[C@@H](NC(=O)c1cncc2c1cnn2-c1ccc(F)cc1)c1ccnc(S(C)(=O)=O)c1 [1-(4-Fluorophenyl)-1H-pyrazolo[3,4-c]pyridine-4-carboxylic acid [(R)-1-(2-methanesulfonyl-pyridin-4-yl)-but-3-enyl]-amide]"
